We go through 1 molecule from ChEMBL document CHEMBL5385946, “Discovery of Dehydroabietylamine Derivatives as Antibacterial and Antifungal Agents” (J Nat Prod, 2024).

The test system of experiment [1] is Rhizoctonia solani. The experiment is described as follows: Antifungal activity against Rhizoctonia solani assessed as protective effect at 400 ug/ml. The experiment is classed as functional. Particulars: dose 400 µg/ml.
Experiment [2] deals with Fusarium graminearum. The experiment is described as follows: Antifungal activity against Gibberella zeae at 50 ug/ml. The experiment is classed as functional.
Experiment [3] relates to Staphylococcus aureus. The experiment is described as follows: Antibacterial activity against Staphylococcus aureus CMCC(B)26003 by agar dilution method. Format: functional.
The test system of experiment [4] is Rhizoctonia solani. The experiment is described as follows: Antifungal activity against Rhizoctonia solani assessed as appearance of disordered mycelium winding incubated for 36 hrs. The experiment is classed as functional, organism-based.
The subject of experiment [5] is Rhizoctonia solani. Briefly: Antifungal activity against Rhizoctonia solani at 50 ug/ml. The experiment is classed as functional.
The subject of experiment [6] is Rhizoctonia solani. Briefly: Antifungal activity against Rhizoctonia solani assessed as appearance of wrinkling on mycelium surface incubated for 36 hrs. Format: functional, organism-based.
Experiment [7] deals with Rhizoctonia solani. The experiment is described as follows: Antifungal activity against Rhizoctonia solani assessed as appearance of irregular mycelium bending incubated for 36 hrs. The experiment is classed as functional, organism-based.
The test system of experiment [8] is Botrytis cinerea. The experiment is described as follows: Antifungal activity against Botrytis cinerea at 50 ug/ml. Format: functional.
The subject of experiment [9] is Alternaria solani. Briefly: Antifungal activity against Alternaria solani at 50 ug/ml. Format: functional.
Experiment [10] concerns Rhizoctonia solani. Briefly: Antifungal activity against Rhizoctonia solani. Format: functional, organism-based.
Experiment [11] has as its system Rhizoctonia solani. The experiment is described as follows: Antifungal activity against Rhizoctonia solani assessed as appearance of twisted hyphae at 25 ug/ml by SEM analysis. Particulars: dose 25.0 µg/ml. The experiment is classed as functional, organism-based.
Experiment [12] relates to Rhizoctonia solani. Briefly: Antifungal activity against Rhizoctonia solani assessed as appearance of contracted surface at 25 ug/ml by SEM analysis. The experiment is classed as functional, organism-based. Conditions: dose 25.0 µg/ml.
In experiment [13] the test system is Rhizoctonia solani. The experiment is described as follows: Antifungal activity against Rhizoctonia solani assessed as appearance of rough surface at 25 ug/ml by SEM analysis. The experiment is classed as functional, organism-based. Conditions: dose 25.0 µg/ml.
In experiment [14] the test system is Rhizoctonia solani. Briefly: Antifungal activity against Rhizoctonia solani assessed as appearance of irregular intertwining at 25 ug/ml by SEM analysis. Particulars: dose 25.0 µg/ml. The experiment is classed as functional, organism-based.
For experiment [15], the system named is Rhizoctonia solani. Briefly: Antifungal activity against Rhizoctonia solani assessed as appearance of shrunk hyphae at 25 ug/ml by SEM analysis. The experiment is classed as functional, organism-based. Conditions: dose 25.0 µg/ml.
The test system of experiment [16] is Rhizoctonia solani. The experiment is described as follows: Antifungal activity against Rhizoctonia solani assessed as protective effect at 200 ug/ml. Format: functional. Particulars: dose 200 µg/ml.
For experiment [17], the system named is Rhizoctonia solani. Briefly: Antifungal activity against Rhizoctonia solani assessed as hyphal surface secretion at 25 ug/ml by SEM analysis. The experiment is classed as functional, organism-based. Conditions: dose 25.0 µg/ml.
For experiment [18], the system named is Escherichia coli. Briefly: Antibacterial activity against Escherichia coli CMCC(B)44102 by agar dilution method. The experiment is classed as functional.
The test system of experiment [19] is Rhizoctonia solani. The experiment is described as follows: Antifungal activity against Rhizoctonia solani assessed as mycelium shrinkage incubated for 36 hrs. Format: functional, organism-based.

Converted amounts (≈) assume the structure as drawn. The source made the active and inactive calls. No cut-off for these calls is given here.

For the molecule `COc1ccc(C[C@@]2(CN)CCC[C@]3(C)c4ccc(C(C)C)cc4CC[C@@H]23)cc1`, the Activity in [1] is 76.9%; in [16], 27.7%. Further, the inhibition at 50 µg/mL in experiment [2] worked out at 34.8%; in experiment [5] it was 95.6%; in [8], 85.2%; in experiment [9], 22.1%. Further, the MIC in [3] is more than 128 µg/mL; in [18] it was 32 µg/mL (≈ 81.7 µM). In addition, the result in experiment [4], in [6], in experiment [7], in [11], in experiment [12] and in [13] was Active. Further, the outcome in [14], in experiment [15], in [17] and in experiment [19] was Active. This molecule displayed an EC50 in experiment [10] of 5.21 µg/mL (≈ 13.3 µM).
